Tests used:
[1] = Acute toxicity, minimal motor impairment (ataxia), rats; type: in vivo; conditions: rat, 30 mg/kg
Experimental: Toxicity was measured using the minimal motor impairment test described below.
Animals are monitored for overt signs of impaired neurological or muscular function to assess a compound's toxicity. In mice, the rotorod procedure is used to disclose minimal muscular or neurological impairment. When a mouse is placed on a rotating rod (6 rpm), the animal can maintain its equilibrium for long periods of time. The animal is considered toxic if it falls off the rotating rod three times during a 1 minute period. In rats, minimal motor deficit is indicated by ataxia, which is manifested by an abnormal, uncoordinated gait. Rats used for toxicity evaluation are examined before the test drug is given as individual animals may have peculiarities in gait, equilibrium, and pacing response which must be distinguished from potential effects of the test substance.
Male and female albino CF1 mice (18-25 g, Charles River, Portage, Mich.) and male albino Sprague-Dawley rats (275-300 g, kindling test; 100-150 g all other tests; Charles River, Raleigh, N.C.) were used as experimental animals.

[2] = Acute toxicity, minimal motor impairment (rotorod), mice; type: in vivo; conditions: mice, rotorod
Summary of the method: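 Mice placed on a rod rotating at 6 rpm; a compound is scored toxic when the animal falls off three times within 1 min. In rats, minimal motor deficit is scored as ataxia, an abnormal uncoordinated gait.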

With `CCOC(=O)C1[C@@H]2[C@@H](O)[C@@H]3O[C@H](c4ccc(OC)cc4)OC[C@H]3O[C@H]12` (stereo partly drawn) [Compound 16, ethyl (2R,4aR,5aS,6aR,7R,7aS)-7-hydroxy-2-(4-methoxyphenyl)hexahydro-4H-cyclopropa[5,6]pyrano[3,2-d][1,3]dioxine-6-carboxylate] the “TOX 30 4 h (animals toxic/tested)” value [1] was 0/4, the “TOX 30 0.5 h (animals toxic/tested)” value ([2]; 30 mg/kg, 0.5 h) was 0/4 and the “TOX 30 4 h (animals toxic/tested)” value ([2]; 30 mg/kg, 4 h) was 0/2. The “TOX 100 0.5 h (animals toxic/tested)” value ([2]; 100 mg/kg, 0.5 h) was 2/8, the “TOX 100 4 h (animals toxic/tested)” value ([2]; 100 mg/kg, 4 h) was 0/4 and the “TOX 300 0.5 h (animals toxic/tested)” value ([2]; 300 mg/kg, 0.5 h) was 3/4. The “TOX 300 4 h (animals toxic/tested)” value ([2]; 300 mg/kg, 4 h) was 1/2.
